In patent US8378117B2 (priority 2005, dated 2013):
Read-outs that look alike come from different tables or passages of the source.

What was measured:
CB1 receptor [1] = molecular target: T1, CB1 receptor (Homo sapiens, UniProt P21554); assay: cell-based; conditions: SK-N-MC cells
T1 construct: expressed in transfected cells
Description: The CB1 and CB2 receptors are G-protein coupled receptors (GPCR), which influence cell function via the Gi-protein. These receptors modulate the activity of intracellular adenylate cyclase, which in turn produces the intracellular signal messenger cyclic-AMP (cAMP).
At baseline, or during non-ligand bound conditions, these receptors are constitutively active and tonically suppress adenylate cyclase activity. The binding of an agonist causes further receptor activation and produces additional suppression of adenylate cyclase activity. The binding of an inverse agonist inhibits the constitutive activity of the receptors and results in an increase in adenylate cyclase activity.
By monitoring intracellular adenylate cyclase activity, the ability of compounds to act as agonists or inverse agonists can be determined.
Test compounds were evaluated in SK-N-MC cells which, using standard transfection procedures, were stably transfected with human cDNA for pcDNA3-CRE β-gal and pcDNA3 CB1 receptor (human) or pcDNA3 CB2 receptor (human). By expressing CRE β-gal, the cells produced β-galactosidase in response to CRE promoter activation by cAMP. Cells expressing CRE β-gal and either the human CB1 or CB2 receptor will produce less β-galactosidase when treated with a CB1/CB2 agonist and will produce more β-galactosidase when treated with a CB1/CB2 inverse agonist.
The cells were grown in 96-well plates under standard cell culture conditions at 37° C. in a 5% CO2 atmosphere and culture media (wherein the media was supplemented with 2 mM L-glutamine, […] sodium pyruvate, 10% FBS (fetal bovine serum) and antibiotics).
The change in forskolin induced β-galactosidase activity was determined by setting a vehicle treated cell's activity value at 100% and expressing the β-galactosidase activity measured in a corresponding compound treated cell as a percent of the vehicle treated cell activity.
The EC50 value for functional activity for compounds tested was calculated by linear regression and was obtained from studies in which varying compound concentrations were used.
Where an EC50 value was not obtained for a test compound, the value shown (in %) represents change in functional activity and was obtained from a study in which one compound concentration was used.

CB1 receptor [2] = molecular target: T1, CB1 receptor; assay: Binding assay for CB1 agonists or inverse agonists (SK-N-MC membranes, [3H]-CP-55,940); conditions: for CB1 receptor binding percent inhibition: test concentration not stated
In short: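 Membranes from SK-N-MC cells stably expressing human CB1 incubated with compound and [3H]-CP-55,940 ([…]) for 90 min at 30° C in Tris-HCl pH 7.5, MgCl2, EDTA, fatty-acid-free BSA. Non-specific binding defined with 10 uM WIN 55,212; filtration, scintillation count; IC50 by linear regression.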

CB2 receptor = molecular target: T2, CB2 receptor (Homo sapiens, UniProt P34972); assay: Binding assay for CB2 agonists or inverse agonists (SK-N-MC membranes, [3H]-CP-55,940); conditions: for CB2 receptor binding percent inhibition: test concentration not stated
T2 construct: expressed in transfected cells
T2 sequence (P34972 whole entry): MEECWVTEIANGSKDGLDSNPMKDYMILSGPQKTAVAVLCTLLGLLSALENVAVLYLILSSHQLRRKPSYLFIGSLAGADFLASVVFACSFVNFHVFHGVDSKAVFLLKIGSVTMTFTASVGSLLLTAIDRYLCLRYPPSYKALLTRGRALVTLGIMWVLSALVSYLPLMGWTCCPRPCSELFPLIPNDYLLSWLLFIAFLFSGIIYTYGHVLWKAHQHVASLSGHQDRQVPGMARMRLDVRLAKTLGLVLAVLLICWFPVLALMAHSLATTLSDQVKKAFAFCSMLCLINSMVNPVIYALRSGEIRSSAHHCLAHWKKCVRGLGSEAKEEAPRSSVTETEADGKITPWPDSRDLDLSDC
In short: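 Membranes from SK-N-MC cells stably expressing human CB2 were incubated with radioligand and test compounds for 90 min at 30 °C in Tris-HCl buffer, pH 7.5, with MgCl2, EDTA and fatty-acid-free BSA. Filter-bound radioactivity was counted; IC50 was derived by linear regression of percent inhibition.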

[3] = CB1 Receptor Functional Inverse Agonist EC50, forskolin induced β-galactosidase activity
[4] = Cannabinoid CB1 Receptor Binding IC50, calculated by linear regression from percent inhibition at various test concentrations
[5] = read-out: CB1 receptor binding percent inhibition, test concentration 1 μM (footnote 1)
[6] = forskolin induced β-galactosidase activity, read-out: CB1 Receptor Functional Inverse Agonist EC50
[7] = read-out: CB1 receptor binding percent inhibition, test concentration 0.5 μM (footnote 10)
[8] = forskolin induced β-galactosidase activity, read-out: CB1 Receptor Functional Agonist EC50
[9] = read-out: CB1 receptor binding percent inhibition

T1 sequence (P21554 whole entry): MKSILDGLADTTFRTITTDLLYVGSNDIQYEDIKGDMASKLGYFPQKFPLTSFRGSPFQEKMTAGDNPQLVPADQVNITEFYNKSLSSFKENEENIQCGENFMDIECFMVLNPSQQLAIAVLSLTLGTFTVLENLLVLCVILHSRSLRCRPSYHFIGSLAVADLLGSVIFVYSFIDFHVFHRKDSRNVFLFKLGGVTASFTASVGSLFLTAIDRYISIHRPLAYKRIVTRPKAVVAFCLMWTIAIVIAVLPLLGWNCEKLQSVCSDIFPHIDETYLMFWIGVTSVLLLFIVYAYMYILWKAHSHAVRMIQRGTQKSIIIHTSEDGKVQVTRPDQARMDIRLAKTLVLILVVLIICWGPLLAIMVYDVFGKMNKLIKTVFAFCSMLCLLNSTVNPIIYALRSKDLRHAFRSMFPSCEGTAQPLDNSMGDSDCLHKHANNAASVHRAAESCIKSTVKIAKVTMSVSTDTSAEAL

Row | Structure (SMILES) | EC50 (CB1 receptor [1]; [3]) [nM] | inhibition at 1 µM (CB1 receptor [2]; [5]) [%] | CB2 receptor binding percent inhibition (CB2 receptor) [%] | other results
1 | O=C(NN1CCOCC1)c1nn(-c2ccc(Cl)cc2Cl)c2c1CCCCC2Cc1cccc(F)c1 (stereo not drawn) [Cpd 91, 1-(2,4-dichloro-phenyl)-8-(3-fluoro-benzyl)-1,4,5,6,7,8-hexahydro-cycloheptapyrazole-3-carboxylic acid morpholin-4-ylamide] | 70 | 68 | 0 | IC50 (CB1 receptor [2]; [4]): 300 nM
2 | CC12CCC(C1)C(C)(C)[C@H]2NC(=O)c1nn(-c2ccc(F)cc2F)c2c1CCCCC2Cc1cccc(F)c1 (stereo partly drawn) [Cpd 92, 1-(2,4-difluoro-phenyl)-8-(3-fluoro-benzyl)-1,4,5,6,7,8-hexahydro-cycloheptapyrazole-3-carboxylic acid [(2S)-1,3,3-trimethyl-bicyclo[2.2.1]hept-2-yl]-amide] | 90 | 86 | – | IC50 (CB1 receptor [2]; [4]): 100 nM; IC50 (CB2 receptor; Cannabinoid CB2 Receptor Binding IC50, calculated by linear regression from percent inhibition at various test concentrations): 200 nM; inhibition at 1 µM (CB2 receptor; read-out: CB2 receptor binding percent inhibition, test concentration 1 μM (footnote 1)): 82%
3 | C[C@H](NS(=O)(=O)/C=C/c1nn(-c2ccc(F)cc2F)c2c1CCCCC2Cc1cccc(F)c1)c1ccccc1 (stereo partly drawn) [Cpd 93, (2E)-2-[1-(2,4-difluoro-phenyl)-8-(3-fluoro-benzyl)-1,4,5,6,7,8-hexahydro-cycloheptapyrazol-3-yl]-ethenesulfonic acid [(1S)-1-phenyl-ethyl]-amide] | 50 | 70 | 58 | IC50 (CB1 receptor [2]; [4]): 400 nM
4 | C[C@H](NS(=O)(=O)/C=C/c1nn(-c2ccc(F)cc2F)c2c1CCCCC2Cc1cccc(F)c1)C1CCCCC1 (stereo partly drawn) [Cpd 94, (2E)-2-[1-(2,4-difluoro-phenyl)-8-(3-fluoro-benzyl)-1,4,5,6,7,8-hexahydro-cycloheptapyrazol-3-yl]-ethenesulfonic acid [(1S)-1-cyclohexyl-ethyl]-amide] | – | 38 | 1 | EC50 (CB1 receptor [1]; [6]): 200 nM
5 | CCOC(=O)[C@H]1C2C=CC(C2)[C@H]1NC(=O)c1nn(-c2ccc(F)cc2F)c2c1CCCCC2Cc1cccc(F)c1 (stereo partly drawn) [Cpd 99, (2S,3R)-3-{[1-(2,4-difluoro-phenyl)-8-(3-fluoro-benzyl)-1,4,5,6,7,8-hexahydro-cycloheptapyrazole-3-carbonyl]-amino}-bicyclo[2.2.1]hept-5-ene-2-carboxylic acid ethyl ester] | – | 17 | 24 | EC50 (CB1 receptor [1]; [6]): 200 nM
6 | COC(=O)[C@@H](Cc1ccc(O)cc1)NC(=O)c1nn(-c2ccc(Cl)cc2Cl)c2c1CCCCC2Cc1cccc(Cl)c1 (stereo partly drawn) [Cpd 102, (2R)-2-{[8-(3-chloro-benzyl)-1-(2,4-dichloro-phenyl)-1,4,5,6,7,8-hexahydro-cycloheptapyrazole-3-carbonyl]-amino}-3-(4-hydroxy-phenyl)-propionic acid methyl ester] | 70 | 77 | 59 | IC50 (CB1 receptor [2]; [4]): 600 nM; inhibition at 0.5 µM (CB1 receptor [2]; [7]): 55%
7 | C[C@H](NS(=O)(=O)/C=C/c1nn(C)c2c1CCCCC2Cc1cccc(F)c1)c1ccccc1 (stereo partly drawn) [Cpd 104, (2E)-2-[8-(3-fluoro-benzyl)-1-methyl-1,4,5,6,7,8-hexahydro-cycloheptapyrazol-3-yl]-ethenesulfonic acid [(1S)-1-phenyl-ethyl]-amide] | 100 | 19 | 93 | –
8 | C[C@H](NS(=O)(=O)/C=C/c1nn(-c2ccc(F)cc2F)c2c1CCCCC2Cc1ccc(F)cc1)c1ccccc1 (stereo partly drawn) [Cpd 107, (2E)-2-[1-(2,4-difluoro-phenyl)-8-(4-fluoro-benzyl)-1,4,5,6,7,8-hexahydro-cycloheptapyrazol-3-yl]-ethenesulfonic acid [(1S)-1-phenyl-ethyl]-amide] | – | 72 | 64 | EC50 (CB1 receptor [1]; [8]): 19800 nM; IC50 (CB1 receptor [2]; calculated by linear regression from percent inhibition at various test concentrations, read-out: Cannabinoid CB1 Receptor Binding IC50): 300 nM; inhibition at 0.5 µM (CB1 receptor [2]; [7]): 59%
9 | CCOC(=O)[C@@H]1C2CCC(C2)[C@@H]1NC(=O)c1nn(-c2ccc(F)cc2F)c2c1CCCCC2Cc1ccc(F)cc1 (stereo partly drawn) [Cpd 110, (2R,3S)-3-{[1-(2,4-difluoro-phenyl)-8-(4-fluoro-benzyl)-1,4,5,6,7,8-hexahydro-cycloheptapyrazole-3-carbonyl]-amino}-bicyclo[2.2.1]heptane-2-carboxylic acid ethyl ester] | 100 | – | 59 | inhibition at 0.5 µM (CB1 receptor [2]; [9]): 48%; inhibition at 1 µM (CB1 receptor [2]; [9]): 63%; CB1 receptor binding percent inhibition (CB1 receptor [2]): 56%
10 | CCOC(=O)[C@@H]1C2CCC(C2)[C@@H]1NC(=O)c1nn(-c2ccc(F)cc2F)c2c1CCCCC2Cc1cccc(F)c1 (stereo partly drawn) [Cpd 111, (2R,3S)-3-{[1-(2,4-difluoro-phenyl)-8-(3-fluoro-benzyl)-1,4,5,6,7,8-hexahydro-cycloheptapyrazole-3-carbonyl]-amino}-bicyclo[2.2.1]heptane-2-carboxylic acid ethyl ester] | 90 | 62 | 65 | inhibition at 0.5 µM (CB1 receptor [2]; [7]): 45%; CB1 receptor binding percent inhibition (CB1 receptor [2]): 54%
11 | O=C(NN1CCOCC1)c1nn(-c2ccc(F)cc2F)c2c1CCCCC2Cc1cccc(F)c1 (stereo not drawn) [Cpd 116, 1-(2,4-difluoro-phenyl)-8-(3-fluoro-benzyl)-1,4,5,6,7,8-hexahydro-cycloheptapyrazole-3-carboxylic acid morpholin-4-ylamide] | – | 14 | 24 | EC50 (CB1 receptor [1]; [8]): 300 nM
12 | O=C(NN1CCOCC1)c1nn(-c2ccc(Cl)cc2Cl)c2c1CCCCC2Cc1cccc(Cl)c1 (stereo not drawn) [Cpd 117, 8-(3-chloro-benzyl)-1-(2,4-dichloro-phenyl)-1,4,5,6,7,8-hexahydro-cycloheptapyrazole-3-carboxylic acid morpholin-4-ylamide] | – | 44 | 22 | EC50 (CB1 receptor [1]; [6]): 300 nM
13 | O=C(c1nn(-c2ccc(F)cc2F)c2c1CCCCC2Cc1cccc(F)c1)N1CCOCC1 (stereo not drawn) [Cpd 118, [1-(2,4-difluoro-phenyl)-8-(3-fluoro-benzyl)-1,4,5,6,7,8-hexahydro-cycloheptapyrazol-3-yl]-morpholin-4-yl-methanone] | 100 | – | 31 | inhibition at 1 µM (CB1 receptor [2]; [9]): 4%
14 | O=C(N[C@@H]1c2ccccc2C[C@@H]1O)c1nn(C2CCCCC2)c2c1CCCC[C@@H]2Cc1ccc(F)cc1 [Cpd 120, (8R)-1-cyclohexyl-8-(4-fluoro-benzyl)-1,4,5,6,7,8-hexahydro-cycloheptapyrazole-3-carboxylic acid [(1R,2S)-2-hydroxy-indan-1-yl]-amide] | 100 | 9 | 16 | –
15 | O=S(=O)(/C=C/c1nn(-c2ccc(F)cc2F)c2c1CCCCC2Cc1ccc(F)cc1)NN1CCCCC1 (stereo not drawn) [Cpd 122, (2E)-2-[1-(2,4-difluoro-phenyl)-8-(4-fluoro-benzyl)-1,4,5,6,7,8-hexahydro-cycloheptapyrazol-3-yl]-ethenesulfonic acid piperidin-1-ylamide] | 60 | 0 | 0 | –
16 | O=S(=O)(/C=C/c1nn(-c2ccc(F)cc2F)c2c1CCCCC2Cc1cccc(F)c1)NN1CCCCC1 (stereo not drawn) [Cpd 123, (2E)-2-[1-(2,4-difluoro-phenyl)-8-(3-fluoro-benzyl)-1,4,5,6,7,8-hexahydro-cycloheptapyrazol-3-yl]-ethenesulfonic acid piperidin-1-ylamide] | 2900 | – | 14 | inhibition at 1 µM (CB1 receptor [2]; [9]): 47%
17 | Cn1nc(/C=C/S(=O)(=O)NN2CCCCC2)c2c1C(Cc1cccc(F)c1)CCCC2 (stereo not drawn) [Cpd 124, (2E)-2-[8-(3-fluoro-benzyl)-1-methyl-1,4,5,6,7,8-hexahydro-cycloheptapyrazol-3-yl]-ethenesulfonic acid piperidin-1-ylamide] | – | 14 | 47 | EC50 (CB1 receptor [1]; [6]): 3400 nM
